In ChEMBL document CHEMBL1201862, “PubChem BioAssay data set” (2004):
The source made the active and inactive calls.

Tests used:
[1] = THP-1 cell cytotoxicity, dose response, cytotoxicity control for non-replicating M. tuberculosis project (AID 489025); assay type: functional
[2] = biological target: T1, Microphthalmia-associated transcription factor (Homo sapiens, UniProt O75030); test: reducers of TRPM1 reporter luminescence, concentration series – cell-based, SK-MEL-5, cherry-picked, set 3, MITF inhibitor project, dose response (AID 493073); assay type: functional;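 further: SK-MEL-5 melanoma cells with luciferase driven by the MITF target TRPM1 promoter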
T1 sequence (O75030 whole entry): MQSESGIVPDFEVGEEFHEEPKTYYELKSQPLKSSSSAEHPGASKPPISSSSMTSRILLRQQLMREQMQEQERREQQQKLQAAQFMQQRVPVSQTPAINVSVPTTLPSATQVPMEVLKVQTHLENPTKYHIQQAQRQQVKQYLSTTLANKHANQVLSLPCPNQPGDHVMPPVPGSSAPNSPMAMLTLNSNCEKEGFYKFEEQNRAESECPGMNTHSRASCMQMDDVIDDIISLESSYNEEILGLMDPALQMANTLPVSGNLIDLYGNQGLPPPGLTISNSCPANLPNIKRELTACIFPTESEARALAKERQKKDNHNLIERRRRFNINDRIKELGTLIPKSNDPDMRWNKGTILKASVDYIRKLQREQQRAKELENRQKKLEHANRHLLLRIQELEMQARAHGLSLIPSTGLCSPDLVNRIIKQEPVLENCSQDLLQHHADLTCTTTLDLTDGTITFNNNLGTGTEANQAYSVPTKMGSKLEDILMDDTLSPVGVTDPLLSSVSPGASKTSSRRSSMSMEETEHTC

[3] = HepG2 cell cytotoxicity, dose response, cytotoxicity control for non-replicating M. tuberculosis project (AID 489018); assay type: functional; settings: Mycobacterium tuberculosis
Paired box protein Pax-8 = Paired box protein Pax-8 (Homo sapiens, UniProt Q06710); test: PAX8 transcriptional activity inhibition in RMG-I – RMG-I cells, luciferase, cherry-pick, dose response (AID 687027); assay type: functional, cell-based;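 further: luciferase reporter driven by Pax8 target thyroperoxidase promoter measured by SteadyGlo luminescence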
Paired box protein Pax-8, sequence (Q06710 whole entry): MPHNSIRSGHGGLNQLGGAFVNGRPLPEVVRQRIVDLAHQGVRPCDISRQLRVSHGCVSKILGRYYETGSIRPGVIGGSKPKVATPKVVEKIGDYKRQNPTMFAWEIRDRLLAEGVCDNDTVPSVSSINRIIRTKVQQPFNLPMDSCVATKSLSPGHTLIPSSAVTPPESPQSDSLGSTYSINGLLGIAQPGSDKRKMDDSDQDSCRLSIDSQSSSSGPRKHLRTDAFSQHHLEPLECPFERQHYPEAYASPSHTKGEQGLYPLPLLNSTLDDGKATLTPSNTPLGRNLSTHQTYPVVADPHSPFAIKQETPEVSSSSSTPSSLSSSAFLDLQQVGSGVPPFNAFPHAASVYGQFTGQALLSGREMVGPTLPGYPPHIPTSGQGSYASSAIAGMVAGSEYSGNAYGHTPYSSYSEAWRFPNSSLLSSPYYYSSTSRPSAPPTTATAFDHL

[4] = Vero E6 cell cytotoxicity, dose response, cytotoxicity control for non-replicating M. tuberculosis project, secondary assay (AID 492998); assay type: functional, VeroE6; settings: Vero C1008
[5] = Counterscreen for AddAB inhibitors: absorbance-based bacterial cell-based high throughput dose response assay for inhibitors of bacterial viability. [Related pubchem assays (depositor defined):AID435030, AID449728, AID449731, AID488942, AID488955, AID488956]; assay type: functional
Exodeoxyribonuclease V = biological target: T2, Exodeoxyribonuclease V (Escherichia coli (strain K12), UniProt P04993+P07648+P08394); test: RecBCD inhibition via phage-restricted bacterial growth – absorbance, V66 E. coli, mutant T4 phage, counter-screen for AddAB inhibitor project, dose response (AID 492957); assay type: functional, cell-based, Escherichia coli str. K-12 substr. MG1655
T2 sequence (P04993 whole entry): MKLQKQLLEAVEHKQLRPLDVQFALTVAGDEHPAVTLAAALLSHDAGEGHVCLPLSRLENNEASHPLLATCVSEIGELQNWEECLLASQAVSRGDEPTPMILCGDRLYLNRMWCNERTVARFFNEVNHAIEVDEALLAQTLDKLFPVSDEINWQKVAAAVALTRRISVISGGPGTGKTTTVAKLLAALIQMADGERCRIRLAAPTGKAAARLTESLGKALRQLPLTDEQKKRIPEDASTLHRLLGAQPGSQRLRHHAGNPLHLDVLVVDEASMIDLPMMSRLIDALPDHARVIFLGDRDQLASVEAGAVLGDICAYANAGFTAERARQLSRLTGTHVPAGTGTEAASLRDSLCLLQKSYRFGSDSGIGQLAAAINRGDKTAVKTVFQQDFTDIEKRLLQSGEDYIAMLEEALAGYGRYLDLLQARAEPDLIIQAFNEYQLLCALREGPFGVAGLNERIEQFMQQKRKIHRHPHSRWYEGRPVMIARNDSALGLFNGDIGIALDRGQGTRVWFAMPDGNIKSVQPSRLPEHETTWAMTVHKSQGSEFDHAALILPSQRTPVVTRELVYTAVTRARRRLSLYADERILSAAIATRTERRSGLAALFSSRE
T2 sequence (P07648 whole entry): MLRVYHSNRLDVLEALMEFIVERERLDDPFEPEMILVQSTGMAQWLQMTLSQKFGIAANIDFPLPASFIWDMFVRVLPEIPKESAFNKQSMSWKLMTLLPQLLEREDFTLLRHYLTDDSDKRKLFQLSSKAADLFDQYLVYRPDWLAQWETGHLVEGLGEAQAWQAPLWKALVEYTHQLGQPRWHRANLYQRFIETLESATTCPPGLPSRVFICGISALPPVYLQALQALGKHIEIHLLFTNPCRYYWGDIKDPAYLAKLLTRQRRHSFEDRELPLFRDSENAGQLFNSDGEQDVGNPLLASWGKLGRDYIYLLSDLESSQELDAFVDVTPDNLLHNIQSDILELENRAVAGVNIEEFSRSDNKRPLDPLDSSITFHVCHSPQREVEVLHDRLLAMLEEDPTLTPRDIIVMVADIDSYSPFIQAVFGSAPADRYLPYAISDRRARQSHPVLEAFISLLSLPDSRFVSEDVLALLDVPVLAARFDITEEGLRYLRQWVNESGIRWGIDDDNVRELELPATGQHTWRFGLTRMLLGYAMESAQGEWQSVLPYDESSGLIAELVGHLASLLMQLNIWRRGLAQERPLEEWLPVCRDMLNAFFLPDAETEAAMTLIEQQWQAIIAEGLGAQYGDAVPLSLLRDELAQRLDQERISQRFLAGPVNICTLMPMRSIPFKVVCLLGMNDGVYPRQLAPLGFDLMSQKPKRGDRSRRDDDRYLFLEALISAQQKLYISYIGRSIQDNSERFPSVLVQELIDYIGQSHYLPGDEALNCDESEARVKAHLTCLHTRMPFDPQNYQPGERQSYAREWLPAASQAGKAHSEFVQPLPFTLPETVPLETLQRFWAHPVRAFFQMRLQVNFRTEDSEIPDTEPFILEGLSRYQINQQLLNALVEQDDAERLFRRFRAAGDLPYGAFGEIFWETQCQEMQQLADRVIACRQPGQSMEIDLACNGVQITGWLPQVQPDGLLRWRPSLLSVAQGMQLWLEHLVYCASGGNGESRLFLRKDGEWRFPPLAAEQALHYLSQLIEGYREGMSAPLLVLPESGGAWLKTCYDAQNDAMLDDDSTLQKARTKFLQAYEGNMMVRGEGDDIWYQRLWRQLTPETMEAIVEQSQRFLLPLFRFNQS
T2 sequence (P08394 whole entry): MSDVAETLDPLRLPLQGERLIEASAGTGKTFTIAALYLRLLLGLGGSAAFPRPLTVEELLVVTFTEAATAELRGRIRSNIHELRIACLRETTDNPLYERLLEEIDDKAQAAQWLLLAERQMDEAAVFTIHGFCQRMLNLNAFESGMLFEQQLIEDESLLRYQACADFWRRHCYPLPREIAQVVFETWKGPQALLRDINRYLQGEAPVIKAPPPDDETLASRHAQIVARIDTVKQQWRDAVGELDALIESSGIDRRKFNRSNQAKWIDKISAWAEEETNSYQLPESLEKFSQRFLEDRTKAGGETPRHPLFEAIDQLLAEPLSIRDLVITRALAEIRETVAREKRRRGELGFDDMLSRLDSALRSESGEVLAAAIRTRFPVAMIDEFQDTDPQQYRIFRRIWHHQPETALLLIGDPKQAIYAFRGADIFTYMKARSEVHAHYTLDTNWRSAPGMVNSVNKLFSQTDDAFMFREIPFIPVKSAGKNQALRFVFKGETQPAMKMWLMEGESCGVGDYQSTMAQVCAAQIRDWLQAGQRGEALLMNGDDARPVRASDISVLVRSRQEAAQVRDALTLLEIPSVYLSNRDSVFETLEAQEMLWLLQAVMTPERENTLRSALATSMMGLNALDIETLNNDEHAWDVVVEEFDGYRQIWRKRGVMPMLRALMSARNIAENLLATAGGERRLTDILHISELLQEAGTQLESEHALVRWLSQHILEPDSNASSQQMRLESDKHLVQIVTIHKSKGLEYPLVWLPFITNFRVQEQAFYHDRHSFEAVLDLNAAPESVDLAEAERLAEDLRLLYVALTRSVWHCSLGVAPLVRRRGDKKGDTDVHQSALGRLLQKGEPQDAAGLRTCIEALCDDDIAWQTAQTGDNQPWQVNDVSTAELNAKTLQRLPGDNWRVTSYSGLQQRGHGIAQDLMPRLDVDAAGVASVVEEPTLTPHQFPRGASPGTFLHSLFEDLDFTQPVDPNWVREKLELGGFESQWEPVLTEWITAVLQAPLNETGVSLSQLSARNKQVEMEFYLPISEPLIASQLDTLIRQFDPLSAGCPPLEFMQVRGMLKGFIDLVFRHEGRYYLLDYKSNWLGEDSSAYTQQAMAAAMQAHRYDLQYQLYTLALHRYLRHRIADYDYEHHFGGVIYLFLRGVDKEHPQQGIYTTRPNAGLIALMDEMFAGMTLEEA

cells = assay type: functional
[6] = biological target: T3, G-protein coupled receptor 55 (Homo sapiens, UniProt Q9Y2T6); test: selective activators of receptor GPR55 – imaging, U2OS cells, beta-arrestin-GFP redistribution, primary screen (AID 1961); assay type: functional
T3 sequence (Q9Y2T6 whole entry): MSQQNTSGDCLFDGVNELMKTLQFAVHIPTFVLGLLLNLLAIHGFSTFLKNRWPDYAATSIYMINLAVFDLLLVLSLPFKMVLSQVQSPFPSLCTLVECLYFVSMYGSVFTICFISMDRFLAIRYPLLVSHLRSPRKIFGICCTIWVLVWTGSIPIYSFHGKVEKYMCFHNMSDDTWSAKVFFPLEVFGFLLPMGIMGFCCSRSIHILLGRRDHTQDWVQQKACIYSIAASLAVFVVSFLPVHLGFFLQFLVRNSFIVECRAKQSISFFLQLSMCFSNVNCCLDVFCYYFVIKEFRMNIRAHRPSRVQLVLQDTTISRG

[7] = biological target: T3, G-protein coupled receptor 55; test: inhibition of LPI-stimulated GPR55 beta-arrestin translocation – imaging, U2OS, beta-arrestin-GFP, LPI agonist, primary screen (AID 2013); assay type: functional;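 further: antagonist potency measured as reduced agonist-driven arrestin aggregation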
[8] = NIH3T3 cell viability loss – ATP luminescence, mouse fibroblasts, counter-screen, dose response (AID 2010); assay type: functional, cell-based;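 further: cells exposed to compound for about 90 hours before reading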
[9] = Trypanosoma cruzi growth suppression in host cells – NIH3T3 host cells, beta-gal luminescence, confirmation (AID 2044); assay type: functional, cell-based;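 further: intracellular parasites grown in NIH/3T3 mouse fibroblasts as host cells; luminescent beta-galactosidase reporter signal from transgenic T. cruzi replicating inside host cells; inhibitors lower the luminescence signal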
[10] = biological target: Alkaline phosphatase, placental type (Homo sapiens, UniProt P05187); test: human placental alkaline phosphatase inhibition – biochemical, luminescence, confirmation (AID 1512); assay type: functional
Alkaline phosphatase, placental type, sequence (P05187 whole entry): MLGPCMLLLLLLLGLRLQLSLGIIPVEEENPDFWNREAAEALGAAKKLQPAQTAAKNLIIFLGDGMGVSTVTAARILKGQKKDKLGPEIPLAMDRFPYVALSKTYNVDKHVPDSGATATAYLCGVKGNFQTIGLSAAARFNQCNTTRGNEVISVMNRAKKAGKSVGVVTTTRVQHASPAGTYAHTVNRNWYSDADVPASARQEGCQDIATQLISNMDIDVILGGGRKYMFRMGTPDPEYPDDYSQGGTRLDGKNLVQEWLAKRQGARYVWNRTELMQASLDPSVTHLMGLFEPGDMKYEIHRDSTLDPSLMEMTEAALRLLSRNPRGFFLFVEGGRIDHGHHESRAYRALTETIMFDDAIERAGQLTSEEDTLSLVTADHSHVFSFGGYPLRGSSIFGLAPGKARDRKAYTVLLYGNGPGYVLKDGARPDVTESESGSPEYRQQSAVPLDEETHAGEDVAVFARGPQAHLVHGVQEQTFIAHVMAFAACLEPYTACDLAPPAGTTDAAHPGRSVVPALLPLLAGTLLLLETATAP

[11] = biological target: T4, Alkaline phosphatase, tissue-nonspecific isozyme (Homo sapiens, UniProt P05186); test: potency against alkaline phosphatase TNAP – biochemical, luminescent, dose response, SAR follow-up (AID 1056)
T4 sequence (P05186 whole entry): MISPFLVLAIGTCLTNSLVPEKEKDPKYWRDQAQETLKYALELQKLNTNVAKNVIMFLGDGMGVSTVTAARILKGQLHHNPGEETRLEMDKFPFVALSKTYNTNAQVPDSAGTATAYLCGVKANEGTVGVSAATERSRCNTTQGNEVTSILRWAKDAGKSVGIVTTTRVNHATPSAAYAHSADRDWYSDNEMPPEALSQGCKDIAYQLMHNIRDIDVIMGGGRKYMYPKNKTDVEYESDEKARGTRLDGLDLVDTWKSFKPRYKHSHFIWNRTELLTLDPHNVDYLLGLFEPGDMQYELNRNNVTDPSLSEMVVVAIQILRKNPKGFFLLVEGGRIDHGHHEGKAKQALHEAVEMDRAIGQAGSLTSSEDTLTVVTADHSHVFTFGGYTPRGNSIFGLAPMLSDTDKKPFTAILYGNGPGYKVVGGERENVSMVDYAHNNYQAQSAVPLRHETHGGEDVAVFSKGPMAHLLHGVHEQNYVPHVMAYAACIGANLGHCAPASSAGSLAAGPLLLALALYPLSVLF

[12] = biological target: Glyceraldehyde-3-phosphate dehydrogenase (Homo sapiens, UniProt P04406)
Glyceraldehyde-3-phosphate dehydrogenase, sequence (P04406 whole entry): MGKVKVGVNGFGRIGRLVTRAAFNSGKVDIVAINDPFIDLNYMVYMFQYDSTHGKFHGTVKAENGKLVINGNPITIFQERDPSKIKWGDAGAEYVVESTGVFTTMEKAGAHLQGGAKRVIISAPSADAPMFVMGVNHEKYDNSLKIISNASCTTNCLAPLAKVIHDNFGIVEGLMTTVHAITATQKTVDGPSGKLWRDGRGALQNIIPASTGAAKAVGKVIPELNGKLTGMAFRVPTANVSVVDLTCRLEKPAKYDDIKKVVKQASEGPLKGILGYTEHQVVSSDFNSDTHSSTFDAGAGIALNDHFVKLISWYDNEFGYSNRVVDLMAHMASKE

[13] = biological target: DNA dC->dU-editing enzyme APOBEC-3A (Homo sapiens, UniProt P31941); test: A3A deaminase inhibition for selectivity – biochemical, dose response (AID 504722); assay type: functional
DNA dC->dU-editing enzyme APOBEC-3A, sequence (P31941 whole entry): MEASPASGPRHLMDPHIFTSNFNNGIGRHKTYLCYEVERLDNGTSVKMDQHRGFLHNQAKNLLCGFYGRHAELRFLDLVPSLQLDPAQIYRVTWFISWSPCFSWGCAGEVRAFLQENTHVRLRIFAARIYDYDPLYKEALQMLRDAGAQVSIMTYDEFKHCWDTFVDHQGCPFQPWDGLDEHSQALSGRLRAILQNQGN

[14] = HGIII-sPLA2 enzyme inhibition potency – biochemical, QFRET, IC50, dose response (AID 743457);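 further: green fluorescence rise as the enzyme cleaves BODIPY PC-A2 in liposomes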
[15] = biological target: DNA dC->dU-editing enzyme APOBEC-3G (Homo sapiens, UniProt Q9HC16); test: Dose Response confirmation of small molecule APOBEC3G DNA Deaminase Inhibitors via a fluorescence-based single-stranded DNA deaminase assay. [Related pubchem assays (depositor defined):AID493012, AID493028]; assay type: functional
DNA dC->dU-editing enzyme APOBEC-3G, sequence (Q9HC16 whole entry): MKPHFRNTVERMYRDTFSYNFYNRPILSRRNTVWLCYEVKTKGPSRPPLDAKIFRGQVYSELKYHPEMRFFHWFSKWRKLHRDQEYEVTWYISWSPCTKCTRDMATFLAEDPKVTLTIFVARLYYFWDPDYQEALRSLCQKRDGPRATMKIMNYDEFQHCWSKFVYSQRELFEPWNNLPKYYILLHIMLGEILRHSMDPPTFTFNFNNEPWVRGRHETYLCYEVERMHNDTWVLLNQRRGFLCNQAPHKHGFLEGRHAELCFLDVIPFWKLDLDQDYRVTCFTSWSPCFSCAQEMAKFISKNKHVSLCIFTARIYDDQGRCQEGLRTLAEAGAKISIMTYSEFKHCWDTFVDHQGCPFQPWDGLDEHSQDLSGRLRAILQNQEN

[16] = biological target: Kappa-type opioid receptor (Homo sapiens, UniProt P41145); test: SAR analysis of small molecule agonists of the kappa opioid receptor via a luminescent beta-arrestin assay - Set 3. [Related pubchem assays (depositor defined):AID1777, AID1785, AID1786, AID1966, AID2133, AID2136, AID2284, AID2500]; assay type: functional
Kappa-type opioid receptor, sequence (P41145 whole entry): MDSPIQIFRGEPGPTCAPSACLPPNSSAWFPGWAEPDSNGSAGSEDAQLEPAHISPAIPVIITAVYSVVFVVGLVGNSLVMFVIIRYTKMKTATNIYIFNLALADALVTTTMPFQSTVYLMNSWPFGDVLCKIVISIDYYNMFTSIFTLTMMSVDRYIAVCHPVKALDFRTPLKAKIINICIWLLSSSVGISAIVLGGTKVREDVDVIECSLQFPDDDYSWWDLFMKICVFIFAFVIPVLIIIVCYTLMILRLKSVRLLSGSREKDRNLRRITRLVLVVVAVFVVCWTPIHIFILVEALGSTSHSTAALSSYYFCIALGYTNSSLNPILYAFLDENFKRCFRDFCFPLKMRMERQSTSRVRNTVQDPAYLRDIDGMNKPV

Troponin, cardiac muscle = Troponin, cardiac muscle (Homo sapiens, UniProt P19429+P45379+P63316); test: Fluorescence-based biochemical high throughput dose response assay for activators of the calcium sensitivity of cardiac Regulated Thin Filaments (RTF). [Related pubchem assays (depositor defined):AID493008, AID493018, AID504382, AID504383]; assay type: protein-complex assay

CC(C)C(=O)N1CCN(c2ccc(NC(=O)c3ccc([N+](=O)[O-])o3)cc2)CC1
CC50 [1]: 5.52 µM (active) | AC50 [2]: 7.98 µM (active) | CC50 [3]: 9.53 µM (active) | AC50 (Paired box protein Pax-8): 4.48 µM (active) | CC50 [4]: 3.34 µM (active) | IC50 [5]: > 119 µM (inactive) | IC50 (Exodeoxyribonuclease V): > 119 µM (inactive) | IC50 (cells): 0.54 µM (active)

O=C(Oc1ccccc1/C=C\C(=O)c1cc2ccccc2o1)c1ccccc1
EC50 [6]: 15.4 µM (inactive)

Cn1cccc1/C=C1\C(=O)NC(=O)N(Cc2ccccc2Cl)C1=O
IC50 [7]: 0.978 µM (active)

CCn1nnc(NC(=O)c2ccc([N+](=O)[O-])o2)n1
CC50 [1]: 38.5 µM (active) | EC50 [8]: > 60 µM (inconclusive) | CC50 [3]: > 20 µM (active) | CC50 [4]: 4.8 µM (active) | IC50 [5]: 61.7 µM (inactive) | EC50 [9]: 0.179 µM (active) | IC50 (Exodeoxyribonuclease V): > 118 µM (inactive)

Nc1nc(Cc2ccc3ccccc3c2)n(-c2ccccc2)n1
IC50 [10]: > 100 µM (inactive) | IC50 [11]: > 100 µM (inactive) | IC50 [12]: > 100 µM (not active)

CCn1c(S)nnc1-c1cccc(Br)c1
IC50 [13]: > 100 µM (inactive) | IC50 [14]: > 122 µM (inactive) | IC50 [15]: 4.37 µM (active)

Cc1cc(NCC(=O)c2ccc(O)c(O)c2)[nH]n1
IC50 [10]: 5.71 µM (active) | IC50 [11]: 18.3 µM (active)

Clc1ccccc1Cn1c(SCc2ccc(Br)cc2)nnc1-c1ccccn1
EC50 [16]: 14.2 µM (inactive)

CC1(C)CC(=O)C(/C=N/c2cc(C(=O)c3ccccc3)ccc2N)=C(O)C1
EC50 (Troponin, cardiac muscle): 20.4 µM (inactive)

CCCNC(=O)Cn1c(=O)/c(=C\c2ccc(-c3ccc([N+](=O)[O-])cc3)o2)s/c1=C\C(=O)C(C)(C)C
EC50 (Troponin, cardiac muscle): 0.165 µM (active)
